Test results taken from patent publication US20250289817A1, “SEROTONIN RECEPTOR MODULATORS AND METHODS OF MAKING AND USING THE SAME” (Kuleon LLC, priority 2022, published 2025).
pEC50: −log10 of the molar value.

Columns and labels:
5-HT2A [1] = molecular target: T1, 5-HT2A (Homo sapiens, UniProt P28223); test: Gq activation via Gq/γ1 dissociation BRET, 5-HT2A; format: cell-based; conditions: HEK293T cells; for pEC50: Gq dissociation BRET2, 1 hour at 37° C.; for Emax: HEK-293T, Gq dissociation BRET2, normalized to % 5-HT stimulation
T1 construct: expressed in transfected cells; host or cells: HEK293T
From the text: (§1) To measure 5-HT2 receptor-mediated Gq activation via Gq/y1 dissociation as measured by Bioluminescence Resonance Energy Transfer (BRET) (McCorvy JD, Wacker D, Wang S, Agegnehu B, Liu J, Lansu K, Tribo A R, Olsen R HJ, Che T, Jin J, Roth B L. Structural determinants of 5-HT2B receptor activation and biased agonism. Nat Struct Mo/ Biol. 2018; 25(9): 787-96), HEK293T cells were sub-cultured in Dulbecco's Modified Eagle Medium (DMEM) supplemented with 10% dialyzed fetal bovine serum (FBS) and were co-transfected in a 1:1:1:1 ratio with Rluc8-fused human Gaq (Gaq-Rluc8), a GFP2-fused to the C-terminus of human Gy1(Gy1-GFP2), human G131, and 5-HT2 receptor using TransiT-2020. After at least 18-24 hours, transfected cells were plated in poly-lysine coated 96-well white clear bottom cell culture plates in DMEM containing 1% dialyzed FBS at a density of 25,000-40,000 cells in 200 μL per well and incubated overnight. The following day, medium was decanted, and cells were washed with 60 μL of drug buffer (1×HBSS, 20 mM HEPES, pH 7.4), then 60 μL of drug buffer was added per well. Cells were pre-incubated at in a humidified atmosphere at 37° C. before receiving drug stimulation. Drug stimulation utilized 30 μL addition of drug (3×) diluted in McCorvy buffer (1×HBSS, 20 mM HEPES, pH 7.4, supplemented with 0.3% BSA fatty acid free, 0.03% ascorbic acid) and plates were incubated at for 1 hour at 37° C. Substrate addition occurred 15 minutes before reading and utilized 10 μL of the Rluc substrate coelenterazine 400a for Gq dissociation BRET^2 (Prolume/Nanolight, 5 μM final concentration). Plates were read for luminescence at 400 nm and fluorescent GFP2 emission at 510 nm at 1 second per well using a Mithras LB940 multimode microplate reader (e.g. one provided by Berthold). The BRET ratios of fluorescence/luminescence were calculated per well and were plotted as a function of drug concentration using Graphpad Prism 8 (Graphpad Software Inc., San Diego, CA). Data were normalized to % 5-HT stimulation and analyzed using nonlinear regression “log(agonist) vs. response” to yield Emax and EC50 parameter estimates. Results are shown in Table 8, where A=<10; B=10 to <100; C=100 to 1000 and D=>1000; +++=>70%; ++=50 to 70%; and +=<50%; NC=not calculated. […] Hallucinogenic (“Hall”) or non-hallucinogenic (“N-Hall”) plastogenic effect is predicted for compounds based on the level 5-HT2A agonist efficacy.

5-HT2B = molecular target: T2, 5-HT2B (Homo sapiens, UniProt P41595); test: Gq activation via Gq/γ1 dissociation BRET, 5-HT2B; format: cell-based; conditions: HEK293T cells, AT* = data suggests antagonistic effect at 5-HT2B (footnote); for Emax: HEK-293T, Gq dissociation BRET2, normalized to % 5-HT stimulation
T2 construct: expressed in transfected cells; host or cells: HEK293T
From the text: as §1

5-HT2C [2] = molecular target: T3, 5-HT2C (Homo sapiens, UniProt P28335); test: Gq signaling bias for 5-HT2C (Gq-coupled versus B-arrestin signaling); format: cell-based; conditions: primary signaling for 5-HT2C via Gq-coupled mechanism compared to B-arrestin
T3 sequence (P28335 33-458): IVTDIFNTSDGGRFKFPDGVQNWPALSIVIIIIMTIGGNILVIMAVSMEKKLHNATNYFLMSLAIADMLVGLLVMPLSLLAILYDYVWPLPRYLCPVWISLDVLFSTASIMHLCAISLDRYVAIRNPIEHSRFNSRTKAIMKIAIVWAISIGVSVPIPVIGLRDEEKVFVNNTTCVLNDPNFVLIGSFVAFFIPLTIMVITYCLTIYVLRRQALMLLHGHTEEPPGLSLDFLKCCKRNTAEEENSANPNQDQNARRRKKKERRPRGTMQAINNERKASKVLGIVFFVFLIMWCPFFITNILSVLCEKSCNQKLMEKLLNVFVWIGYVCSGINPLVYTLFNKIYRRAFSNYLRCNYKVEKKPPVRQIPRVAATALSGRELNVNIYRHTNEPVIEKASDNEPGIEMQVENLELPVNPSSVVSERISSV
From the text: as §1

5-HT2A [3] = molecular target: T1, 5-HT2A; test: Predicted hallucinogenic or non-hallucinogenic plastogenic effect based on 5-HT2A agonist efficacy; conditions: hallucinogenic (Hall) or non-hallucinogenic (N-Hall) plastogenic effect predicted from level of 5-HT2A agonist efficacy
From the text: as §1

5-HT2C [4] = molecular target: T3, 5-HT2C; test: Gq activation via Gq/γ1 dissociation BRET, 5-HT2C; format: cell-based; parameters: expressed in transfected cells; host or cells: HEK293T; conditions: for Emax: HEK-293T, read-out: 5-HT2C Emax (%)
From the text: as §1

[5] = Gq dissociation BRET2, 1 hour at 37° C.

T1 sequence (P28223 whole entry): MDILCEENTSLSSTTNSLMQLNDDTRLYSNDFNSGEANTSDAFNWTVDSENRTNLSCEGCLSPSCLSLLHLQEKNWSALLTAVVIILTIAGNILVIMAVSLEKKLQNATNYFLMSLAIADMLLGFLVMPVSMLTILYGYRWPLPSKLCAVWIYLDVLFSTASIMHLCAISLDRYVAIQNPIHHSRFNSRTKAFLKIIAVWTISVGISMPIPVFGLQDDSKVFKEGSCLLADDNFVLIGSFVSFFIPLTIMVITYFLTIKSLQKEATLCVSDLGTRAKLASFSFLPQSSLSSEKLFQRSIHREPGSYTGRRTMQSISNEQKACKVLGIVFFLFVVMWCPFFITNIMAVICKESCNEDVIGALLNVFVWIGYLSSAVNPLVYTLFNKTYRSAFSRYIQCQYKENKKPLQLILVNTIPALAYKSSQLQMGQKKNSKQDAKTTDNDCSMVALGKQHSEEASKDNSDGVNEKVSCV
T2 sequence (P41595 whole entry): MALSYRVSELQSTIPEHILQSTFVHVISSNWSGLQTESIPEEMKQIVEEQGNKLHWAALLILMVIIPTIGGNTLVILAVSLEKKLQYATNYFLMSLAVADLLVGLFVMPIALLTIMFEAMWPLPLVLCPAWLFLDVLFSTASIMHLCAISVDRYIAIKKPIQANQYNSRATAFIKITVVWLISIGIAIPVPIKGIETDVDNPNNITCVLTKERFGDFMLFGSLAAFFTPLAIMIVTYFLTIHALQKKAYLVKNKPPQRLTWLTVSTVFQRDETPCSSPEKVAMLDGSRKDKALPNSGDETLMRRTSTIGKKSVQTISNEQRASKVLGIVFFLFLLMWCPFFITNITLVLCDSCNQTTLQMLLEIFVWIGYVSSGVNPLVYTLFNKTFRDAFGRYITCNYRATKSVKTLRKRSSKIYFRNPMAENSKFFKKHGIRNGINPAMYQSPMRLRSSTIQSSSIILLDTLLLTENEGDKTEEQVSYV

C1=C(c2csc3ccccc23)CNC1
pEC50 (5-HT2A [1]): 7.00 to 8.00
Emax (5-HT2A [1]): > 70%
Emax (5-HT2B): < 50%
Gq signaling bias? (5-HT2C [2]): Yes
Hall or N-Hall? (5-HT2A [3]): Hall
pEC50 (5-HT2C [4]): > 8.00
Emax (5-HT2C [4]): > 70%

Cl.c1ccc2c(C3CCNC3)csc2c1 (stereo not shown)
pEC50 (5-HT2A [1]): 6.00 to 7.00
Emax (5-HT2A [1]): 50 to 70%
Emax (5-HT2B): < 50%
Gq signaling bias? (5-HT2C [2]): Yes
Hall or N-Hall? (5-HT2A [3]): N-Hall
pEC50 (5-HT2C [4]): 7.00 to 8.00
Emax (5-HT2C [4]): > 70%

Fc1cnc2[nH]cc(C3=CCNC3)c2c1
pEC50 (5-HT2A [1]): 6.00 to 7.00
Emax (5-HT2A [1]): > 70%
pEC50 (5-HT2B; [5]): 6.00 to 7.00
Emax (5-HT2B): > 70%
Gq signaling bias? (5-HT2C [2]): No
Hall or N-Hall? (5-HT2A [3]): Hall
pEC50 (5-HT2C [4]): 7.00 to 8.00
Emax (5-HT2C [4]): > 70%

C1=C(c2c[nH]c3ncccc23)CNC1
Emax (5-HT2A [1]): < 50%
Emax (5-HT2B): < 50%
Gq signaling bias? (5-HT2C [2]): No
Hall or N-Hall? (5-HT2A [3]): N-Hall
Emax (5-HT2C [4]): < 50%

CN1CC=C(c2csc3ccccc23)C1
pEC50 (5-HT2A [1]): 7.00 to 8.00
Emax (5-HT2A [1]): 50 to 70%
pEC50 (5-HT2B; [5]): < 6.00
Emax (5-HT2B): < 50%
pEC50 (5-HT2C [4]): > 8.00
Emax (5-HT2C [4]): > 70%

CN1CC=C(c2csc3cc(F)ccc23)C1
pEC50 (5-HT2A [1]): 6.00 to 7.00
Emax (5-HT2A [1]): < 50%
5-HT2B EC50 (nM) (5-HT2B; [5]): AT*
pEC50 (5-HT2C [4]): 7.00 to 8.00
Emax (5-HT2C [4]): 50 to 70%

CN1CC(c2csc3ccccc23)C1.Cl
pEC50 (5-HT2A [1]): < 6.00
Emax (5-HT2A [1]): < 50%
pEC50 (5-HT2B; [5]): 6.00 to 7.00
Emax (5-HT2B): < 50%
Gq signaling bias? (5-HT2C [2]): Yes
Hall or N-Hall? (5-HT2A [3]): N-Hall
pEC50 (5-HT2C [4]): 7.00 to 8.00
Emax (5-HT2C [4]): > 70%
